Test results from patent US20230100235A1, “ANTICANCER AGENT COMPOSITION” (CARNA BIOSCIENCES, INC., priority 2020, published 2023).

What was measured:
OCI-Ly10 cells [1] = assay: Dose-response study of BTK inhibitor in the presence of BCL-2 inhibitor, OCI-Ly10; type: cell-based; conditions: Homo sapiens, read-out: Inhibitory activity on cell proliferation OCI-Ly10 IC50
Description: (§1) The OCI-Ly10 or U2932 cells (20000 cells/well) were seeded into 96-well plates (cell plates), to which the test compound diluted with the medium was added at final concentrations of 0.009 nM to 30000 nM (a final DMSO concentration of 0.3%), and after 96 hours of culture, an Alamar Blue reagent (Thermo Fisher Scientific Inc.) was added. After 3 hours, the fluorescence of excitation wavelength 560 nm/fluorescence wavelength 590 nm was measured and IC50 values of inhibitory activity were determined by setting a compound-free and cell-free well as 100% and a compound-free and cell-containing well as 0%.
(§2) Changes in IC50 values of the BTK inhibitor in the presence of the BCL-2 inhibitor at various concentrations were examined.

[2] = test system: BTK-C481S-mutant OCI-Ly10 cells; assay: Dose-response study of BTK inhibitor in the presence of BCL-2 inhibitor, BTK-C481S-mutant OCI-Ly10; type: cell-based; conditions: Homo sapiens, read-out: Inhibitory activity on cell proliferation OCI-Ly10 BTK-C481S IC50
Description: (§3) BTK-C481S-mutant OCI-Ly10 cells were produced by point mutation knock-in using the CRISPR-Cas9 system. Cas9 protein (Thermo Fisher Scientific Inc.), guide RNA prepared with GeneArt™ Precision gRNA Synthesis Kit (Thermo Fisher Scientific Inc.), and a single-stranded synthetic oligonucleotide to replace 481st cysteine residue of BTK with a serine residue were introduced into OCI-Ly10 cells by an electroporation method. The resulting modified OCI-Ly10 cells were cultured in the presence of ibrutinib, and the grown cells were used as BTK-C481S-mutant OCI-Ly10 cells. Transduction of the mutation was confirmed by genomic DNA and mRNA sequence analysis.
BTK-C481S-mutant lymphoma cells were used to examine changes in IC50 values of the BTK inhibitor in the presence of various concentrations of BCL-2 inhibitor.
From the results obtained for the BCL-2 inhibitor used as a single agent, BCL-2 inhibitor concentrations for three doses were selected for BTK-C481-mutant OCI-Ly10 cells.

U2932 cells [3] = assay: Cell proliferation suppression test of single agents, U2932 (Alamar Blue, 96 h); type: cell-based, Human; conditions: Homo sapiens, U2932, single agent, read-out: Inhibitory Activity on cell proliferation IC50 U2932
Description: Human lymphoma cell line U2932 cells (obtained from DSMZ) were cultured in a 5% CO2 incubator using RPMI medium (Roswell Park Memorial Institute medium, Thermo Fisher Scientific Inc.) containing 10% fetal bovine serum (GE Healthcare) and 1% penicillin streptomycin (NACALAI TESQUE, INC.).
as §1

[4] = test system: BTK-C481S-mutant OCI-Ly10 cells; assay: Cell proliferation suppression test of single agents, BTK-C481S-mutant OCI-Ly10; type: cell-based, Human; conditions: Homo sapiens, OCI-Ly10; single agent; read-out: Inhibitory activity on cell proliferation OCI-Ly10 BTK-C481S IC50
Description: as §1, §3
In the same manner as in Test Example 1, IC50 values for each inhibitor single agent were determined.

U2932 cells [5] = assay: Dose-response study of BTK inhibitor in the presence of BCL-2 inhibitor, U2932; type: cell-based; conditions: Homo sapiens, read-out: Inhibitory activity on cell proliferation U2932 IC50
Description: as §1, §2
From the result obtained for the BCL-2 inhibitor used as a single agent, BCL-2 inhibitor concentrations for three doses were selected for each cancer cell line.

OCI-Ly10 cells [6] = assay: Cell proliferation suppression test of single agents, OCI-Ly10 (Alamar Blue, 96 h); type: cell-based, Human; conditions: Homo sapiens, OCI-Ly10, single agent, read-out: Inhibitory Activity on cell proliferation IC50 OCI-Ly10
Description: Human lymphoma cell line OCI-Ly10 cells (obtained from University Health Network) were cultured in a 5% CO2 incubator using IMDM medium (Iscove's Modified Dulbecco's Medium, Thermo Fisher Scientific Inc.) containing 20% fetal bovine serum (GE Healthcare) and 1% penicillin streptomycin (NACALAI TESQUE, INC.).
as §1

[7] = OCI-Ly10, in the presence of S-55746 10 nM
[8] = OCI-Ly10, in the presence of S-55746 30 nM
[9] = OCI-Ly10, in the presence of S-55746 100 nM
[10] = OCI-Ly10, in the presence of navitoclax 10 nM
[11] = OCI-Ly10, in the presence of navitoclax 30 nM
[12] = OCI-Ly10, in the presence of navitoclax 100 nM
[13] = OCI-Ly10, in the presence of obatoclax mesylate 50 nM
[14] = OCI-Ly10, in the presence of obatoclax mesylate 100 nM
[15] = OCI-Ly10, in the presence of obatoclax mesylate 200 nM
[16] = OCI-Ly10, in the presence of venetoclax 1 nM
[17] = OCI-Ly10, in the presence of venetoclax 3 nM
[18] = OCI-Ly10, in the presence of venetoclax 10 nM
[19] = OCI-Ly10, obatoclax mesylate 0 nM

SMILES: Cn1cc(Nc2nc(N)nc(-c3cccc(-n4ccc5cc(C6CC6)cc(F)c5c4=O)c3CO)n2)cn1 [Compound (II-A), 2-(3-{4-Amino-6-[(1-methyl-1H-pyrazol-4-yl)amino]-1,3,5-triazin-2-yl}-2-(hydroxymethyl)phenyl)-6-cyclopropyl-8-fluoroisoquinolin-1(2H)-one]
- IC50 (OCI-Ly10 cells [1]; OCI-Ly10, S-55746 0 nM): 33 nM
- IC50 (OCI-Ly10 cells [1]; [7]): 29 nM
- IC50 (OCI-Ly10 cells [1]; [8]): 25 nM
- IC50 (OCI-Ly10 cells [1]; [9]): 18 nM
- IC50 (OCI-Ly10 cells [1]; [10]): 51 nM
- IC50 (OCI-Ly10 cells [1]; [11]): 42 nM
- IC50 (OCI-Ly10 cells [1]; [12]): 26 nM
- IC50 (OCI-Ly10 cells [1]; [13]): 25 nM
- IC50 (OCI-Ly10 cells [1]; [14]): 28 nM
- IC50 (OCI-Ly10 cells [1]; [15]): 30 nM
- IC50 (OCI-Ly10 cells [1]; [16]): 38 nM
- IC50 (OCI-Ly10 cells [1]; [17]): 27 nM
- IC50 (OCI-Ly10 cells [1]; [18]): 19 nM
- IC50 (OCI-Ly10 cells [1]; OCI-Ly10, navitoclax 0 nM): 59 nM
- IC50 (OCI-Ly10 cells [1]; [19]): 38 nM
- IC50 (OCI-Ly10 cells [1]; OCI-Ly10, venetoclax 0 nM): 42 nM
- IC50 ([2]; OCI-Ly10, S-55746 0 nM): 150 nM
- IC50 [2, 7]: 94 nM
- IC50 [2, 8]: 69 nM
- IC50 [2, 9]: 39 nM
- IC50 [2, 10]: 260 nM
- IC50 [2, 11]: 210 nM
- IC50 [2, 12]: 110 nM
- IC50 [2, 13]: 100 nM
- IC50 [2, 14]: 95 nM
- IC50 [2, 15]: 61 nM
- IC50 [2, 16]: 110 nM
- IC50 [2, 17]: 80 nM
- IC50 [2, 18]: 53 nM
- IC50 ([2]; OCI-Ly10, navitoclax 0 nM): 340 nM
- IC50 [2, 19]: 300 nM
- IC50 ([2]; OCI-Ly10, venetoclax 0 nM): 150 nM
- IC50 (U2932 cells [3]): 34700 nM
- IC50 [4]: 150 nM
- IC50 (U2932 cells [5]; U2932, S-55746 0 nM): > 30000 nM
- IC50 (U2932 cells [5]; U2932, in the presence of S-55746 100 nM): 5740 nM
- IC50 (U2932 cells [5]; U2932, in the presence of S-55746 300 nM): 930 nM
- IC50 (U2932 cells [5]; U2932, in the presence of S-55746 1000 nM): 100 nM
- IC50 (U2932 cells [5]; U2932, in the presence of navitoclax 30 nM): 13400 nM
- IC50 (U2932 cells [5]; U2932, in the presence of navitoclax 100 nM): 1360 nM
- IC50 (U2932 cells [5]; U2932, in the presence of navitoclax 300 nM): 100 nM
- IC50 (U2932 cells [5]; U2932, in the presence of obatoclax mesylate 50 nM): 28700 nM
- IC50 (U2932 cells [5]; U2932, in the presence of obatoclax mesylate 100 nM): 25800 nM
- IC50 (U2932 cells [5]; U2932, in the presence of venetoclax 3 nM): 8510 nM
- IC50 (U2932 cells [5]; U2932, in the presence of venetoclax 10 nM): 2190 nM
- IC50 (U2932 cells [5]; U2932, in the presence of venetoclax 100 nM): 160 nM
- IC50 (U2932 cells [5]; U2932, navitoclax 0 nM): > 30000 nM
- IC50 (U2932 cells [5]; U2932, obatoclax mesylate 0 nM): > 30000 nM
- IC50 (U2932 cells [5]; U2932, venetoclax 0 nM): > 30000 nM
- IC50 (OCI-Ly10 cells [6]): 42 nM
